Assay results published in the kinase profiling compilation of Christmann-Franck et al. (2016).

Legend:
Assay in all cases: radiometric filter-binding kinase assay
GCK (human) = GCK (human) (UniProt Q12851)
BRSK1 (human) = BRSK1 (human) (UniProt Q8TDC3)
EPHB1 (human) = EPHB1 (human) (UniProt P54762)
YES1 (human) = YES1 (human) (UniProt P07947)
MAPK8 (human) = MAPK8 (human) (UniProt P45983)
MAPK9 (human) = MAPK9 (human) (UniProt P45984)
SYK (human) = SYK (human) (UniProt P43405)
DYRK3 (human) = DYRK3 (human) (UniProt O43781)
BTK (human) = BTK (human) (UniProt Q06187)
TAOK1 (human) = TAOK1 (human) (UniProt Q7L7X3)
MAP3K5 (human) = MAP3K5 (human) (UniProt Q99683)
PIM1 (human) = PIM1 (human) (UniProt P11309)
EPHA2 (human) = EPHA2 (human) (UniProt P29317)
HIPK1 (human) = HIPK1 (human) (UniProt Q86Z02)
PRKCA (human) = PRKCA (human) (UniProt P17252)
[1] = tested on: RPS6KB1 (human), P23443 [T412E]
EPHB4 (human) = EPHB4 (human) (UniProt P54760)
MAP3K1 (human) = MAP3K1 (human) (UniProt Q13233)
[2] = tested on: AKT1 (human), P31749 [S473D]
MARK3 (human) = MARK3 (human) (UniProt P27448)
MAP2K1 (human) = MAP2K1 (human) (UniProt Q02750)
MAPKAPK5 (human) = MAPKAPK5 (human) (UniProt Q8IW41)
JAK2 JH1 JH2 (human) = JAK2 JH1 JH2 (human) (UniProt O60674)
HIPK2 (human) = HIPK2 (human) (UniProt Q9H2X6)
FLT1 (human) = FLT1 (human) (UniProt P17948)
TBK1 (human) = TBK1 (human) (UniProt Q9UHD2)
STK3 (human) = STK3 (human) (UniProt Q13188)
CaMK1 (human) = CaMK1 (human) (UniProt Q14012)
INSR (human) = INSR (human) (UniProt P06213)
MAPK11 (human) = MAPK11 (human) (UniProt Q15759)
MAPK10 (human) = MAPK10 (human) (UniProt P53779)
DYRK2 (human) = DYRK2 (human) (UniProt Q92630)
AURKA (human) = AURKA (human) (UniProt O14965)
EPHB2 (human) = EPHB2 (human) (UniProt P29323)
BRSK2 (human) = BRSK2 (human) (UniProt Q8IWQ3)
MAP3K11 (human) = MAP3K11 (human) (UniProt Q16584)

Sequence of EPHB2 (human) (P29323 whole entry, looked up): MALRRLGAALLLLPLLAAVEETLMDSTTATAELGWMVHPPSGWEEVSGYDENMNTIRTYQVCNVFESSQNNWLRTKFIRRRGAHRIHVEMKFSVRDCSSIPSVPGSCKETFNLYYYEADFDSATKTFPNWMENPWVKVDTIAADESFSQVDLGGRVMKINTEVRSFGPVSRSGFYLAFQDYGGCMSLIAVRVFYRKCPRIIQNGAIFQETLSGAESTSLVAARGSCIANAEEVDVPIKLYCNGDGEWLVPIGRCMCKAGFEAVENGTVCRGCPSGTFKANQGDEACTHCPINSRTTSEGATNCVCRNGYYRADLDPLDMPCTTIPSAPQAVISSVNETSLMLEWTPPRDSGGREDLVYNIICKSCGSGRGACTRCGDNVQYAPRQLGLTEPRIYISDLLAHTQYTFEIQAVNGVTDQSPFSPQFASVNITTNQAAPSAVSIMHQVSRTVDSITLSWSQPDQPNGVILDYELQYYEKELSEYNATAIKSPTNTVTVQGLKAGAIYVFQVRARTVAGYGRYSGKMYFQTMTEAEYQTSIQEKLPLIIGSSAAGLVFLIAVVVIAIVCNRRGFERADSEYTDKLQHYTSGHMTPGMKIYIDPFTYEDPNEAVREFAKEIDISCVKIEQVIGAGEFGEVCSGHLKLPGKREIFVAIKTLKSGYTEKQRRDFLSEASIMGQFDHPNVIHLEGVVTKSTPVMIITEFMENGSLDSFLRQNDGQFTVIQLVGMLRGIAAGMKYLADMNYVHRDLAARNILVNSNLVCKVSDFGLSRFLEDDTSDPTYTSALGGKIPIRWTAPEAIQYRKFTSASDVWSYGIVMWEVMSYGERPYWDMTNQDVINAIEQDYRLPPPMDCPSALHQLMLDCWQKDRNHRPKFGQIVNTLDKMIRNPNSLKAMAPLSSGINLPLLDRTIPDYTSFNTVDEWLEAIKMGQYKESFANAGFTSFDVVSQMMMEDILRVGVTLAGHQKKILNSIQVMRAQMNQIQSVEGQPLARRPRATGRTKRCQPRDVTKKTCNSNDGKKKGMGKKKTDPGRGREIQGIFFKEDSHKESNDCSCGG
Sequence of MAPK9 (human) (P45984 whole entry, looked up): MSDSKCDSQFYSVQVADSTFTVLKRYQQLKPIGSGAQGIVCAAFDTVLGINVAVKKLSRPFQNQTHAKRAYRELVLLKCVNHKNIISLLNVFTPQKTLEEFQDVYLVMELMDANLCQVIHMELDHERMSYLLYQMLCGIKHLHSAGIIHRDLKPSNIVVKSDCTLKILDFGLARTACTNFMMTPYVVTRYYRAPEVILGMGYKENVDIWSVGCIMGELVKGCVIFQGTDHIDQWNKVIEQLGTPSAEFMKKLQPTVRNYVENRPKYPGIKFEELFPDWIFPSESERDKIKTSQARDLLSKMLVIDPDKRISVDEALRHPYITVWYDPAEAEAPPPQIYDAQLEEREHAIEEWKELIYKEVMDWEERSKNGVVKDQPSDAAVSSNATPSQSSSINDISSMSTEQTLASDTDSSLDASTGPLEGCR
Sequence of TAOK1 (human) (Q7L7X3 whole entry, looked up): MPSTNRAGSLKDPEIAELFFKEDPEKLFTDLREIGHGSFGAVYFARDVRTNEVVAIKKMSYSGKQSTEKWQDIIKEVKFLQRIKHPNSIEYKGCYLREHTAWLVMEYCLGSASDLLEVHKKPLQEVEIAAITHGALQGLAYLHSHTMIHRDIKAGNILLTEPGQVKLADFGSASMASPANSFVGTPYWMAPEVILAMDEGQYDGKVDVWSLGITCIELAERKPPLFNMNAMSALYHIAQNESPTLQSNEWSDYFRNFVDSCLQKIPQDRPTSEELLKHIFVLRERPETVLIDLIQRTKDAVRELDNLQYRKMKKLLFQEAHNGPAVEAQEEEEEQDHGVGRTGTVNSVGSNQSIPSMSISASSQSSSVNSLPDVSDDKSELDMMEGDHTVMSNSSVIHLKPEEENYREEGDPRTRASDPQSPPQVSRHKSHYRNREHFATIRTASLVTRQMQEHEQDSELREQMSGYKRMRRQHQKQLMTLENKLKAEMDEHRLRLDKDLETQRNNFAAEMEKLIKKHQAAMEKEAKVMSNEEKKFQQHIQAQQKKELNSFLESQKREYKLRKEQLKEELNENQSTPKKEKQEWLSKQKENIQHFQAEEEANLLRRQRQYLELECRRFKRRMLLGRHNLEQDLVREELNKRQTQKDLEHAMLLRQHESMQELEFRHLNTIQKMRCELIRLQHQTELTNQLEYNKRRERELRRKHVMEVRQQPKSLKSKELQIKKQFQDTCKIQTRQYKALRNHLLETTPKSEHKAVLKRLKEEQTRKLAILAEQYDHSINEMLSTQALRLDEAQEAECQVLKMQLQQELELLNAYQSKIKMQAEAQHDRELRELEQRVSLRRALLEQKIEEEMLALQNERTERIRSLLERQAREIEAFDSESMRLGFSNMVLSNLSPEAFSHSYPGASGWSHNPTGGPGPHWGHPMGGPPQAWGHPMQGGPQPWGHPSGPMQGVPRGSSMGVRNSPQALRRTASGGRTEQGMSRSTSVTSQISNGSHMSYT
Sequence of BTK (human) (Q06187 whole entry, looked up): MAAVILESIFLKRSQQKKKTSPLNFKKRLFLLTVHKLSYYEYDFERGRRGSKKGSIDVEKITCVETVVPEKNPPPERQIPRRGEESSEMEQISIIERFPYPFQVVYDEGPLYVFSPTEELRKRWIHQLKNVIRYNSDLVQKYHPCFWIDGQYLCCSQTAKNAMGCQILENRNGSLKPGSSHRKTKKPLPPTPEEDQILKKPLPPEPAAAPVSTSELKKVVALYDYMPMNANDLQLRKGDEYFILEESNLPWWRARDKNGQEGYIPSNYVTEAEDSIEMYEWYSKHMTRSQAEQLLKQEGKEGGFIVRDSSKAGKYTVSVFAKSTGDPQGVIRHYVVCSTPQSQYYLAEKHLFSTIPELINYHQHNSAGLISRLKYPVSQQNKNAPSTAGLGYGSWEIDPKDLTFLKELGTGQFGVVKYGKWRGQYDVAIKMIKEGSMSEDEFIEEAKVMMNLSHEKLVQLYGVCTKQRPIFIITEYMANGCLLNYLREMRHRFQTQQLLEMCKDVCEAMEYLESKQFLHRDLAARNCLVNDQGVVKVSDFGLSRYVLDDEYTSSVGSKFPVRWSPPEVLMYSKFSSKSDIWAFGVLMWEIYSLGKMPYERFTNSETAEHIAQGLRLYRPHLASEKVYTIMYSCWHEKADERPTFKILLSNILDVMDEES
Sequence of HIPK2 (human) (Q9H2X6 whole entry, looked up): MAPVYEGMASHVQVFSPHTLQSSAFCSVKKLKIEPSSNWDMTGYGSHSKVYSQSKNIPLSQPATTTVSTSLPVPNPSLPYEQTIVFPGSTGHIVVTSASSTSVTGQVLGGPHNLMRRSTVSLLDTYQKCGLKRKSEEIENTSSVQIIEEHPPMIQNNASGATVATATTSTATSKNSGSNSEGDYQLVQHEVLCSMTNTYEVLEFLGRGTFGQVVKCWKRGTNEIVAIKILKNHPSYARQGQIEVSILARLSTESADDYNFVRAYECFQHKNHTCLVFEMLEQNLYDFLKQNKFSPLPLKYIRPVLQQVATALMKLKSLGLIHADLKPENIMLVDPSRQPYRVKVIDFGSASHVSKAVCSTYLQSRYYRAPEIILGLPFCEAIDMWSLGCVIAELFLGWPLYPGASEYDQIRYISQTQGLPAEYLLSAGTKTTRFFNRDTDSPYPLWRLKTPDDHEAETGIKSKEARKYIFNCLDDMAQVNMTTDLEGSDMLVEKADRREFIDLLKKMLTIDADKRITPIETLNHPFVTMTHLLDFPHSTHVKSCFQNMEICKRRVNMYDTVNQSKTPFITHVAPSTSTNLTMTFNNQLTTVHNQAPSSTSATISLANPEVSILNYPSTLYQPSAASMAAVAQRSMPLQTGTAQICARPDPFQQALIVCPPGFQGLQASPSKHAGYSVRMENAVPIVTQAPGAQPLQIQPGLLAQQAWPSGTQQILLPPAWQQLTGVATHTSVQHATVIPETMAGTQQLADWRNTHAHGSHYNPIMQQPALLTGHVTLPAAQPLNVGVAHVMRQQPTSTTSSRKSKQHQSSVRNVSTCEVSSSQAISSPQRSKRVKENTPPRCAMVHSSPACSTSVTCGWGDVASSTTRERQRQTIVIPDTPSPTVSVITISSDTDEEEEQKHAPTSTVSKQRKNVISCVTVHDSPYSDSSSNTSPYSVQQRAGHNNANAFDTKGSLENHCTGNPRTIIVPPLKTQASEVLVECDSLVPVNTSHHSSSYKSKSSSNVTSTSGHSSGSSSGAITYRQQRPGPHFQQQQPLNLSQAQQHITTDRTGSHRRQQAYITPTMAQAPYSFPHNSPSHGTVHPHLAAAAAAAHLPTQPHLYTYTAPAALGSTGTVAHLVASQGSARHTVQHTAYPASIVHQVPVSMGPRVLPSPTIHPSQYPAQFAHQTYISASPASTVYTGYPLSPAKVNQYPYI
Sequence of TBK1 (human) (Q9UHD2 whole entry, looked up): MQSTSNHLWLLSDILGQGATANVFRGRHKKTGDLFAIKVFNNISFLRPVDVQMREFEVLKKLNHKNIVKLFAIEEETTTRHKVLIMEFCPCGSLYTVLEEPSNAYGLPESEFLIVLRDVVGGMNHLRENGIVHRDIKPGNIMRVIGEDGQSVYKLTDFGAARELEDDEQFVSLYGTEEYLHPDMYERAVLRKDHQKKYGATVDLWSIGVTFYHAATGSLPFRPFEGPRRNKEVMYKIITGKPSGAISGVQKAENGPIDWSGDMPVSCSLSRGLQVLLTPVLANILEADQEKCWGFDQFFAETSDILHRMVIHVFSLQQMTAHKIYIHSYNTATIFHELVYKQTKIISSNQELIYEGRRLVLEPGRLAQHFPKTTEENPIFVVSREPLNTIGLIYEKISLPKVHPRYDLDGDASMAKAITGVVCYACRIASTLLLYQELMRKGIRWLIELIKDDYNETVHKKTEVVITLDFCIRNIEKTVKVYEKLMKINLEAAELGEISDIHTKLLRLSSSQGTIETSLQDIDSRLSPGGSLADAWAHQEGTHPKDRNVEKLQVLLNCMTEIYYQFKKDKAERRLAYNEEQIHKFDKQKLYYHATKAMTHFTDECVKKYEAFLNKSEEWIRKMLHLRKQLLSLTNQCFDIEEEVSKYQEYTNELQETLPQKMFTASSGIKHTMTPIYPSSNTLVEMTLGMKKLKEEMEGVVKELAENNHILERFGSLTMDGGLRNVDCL

NC1(c2ccc(-c3nc4ccn5c(=O)[nH]nc5c4cc3-c3ccccc3)cc2)CCC1 showed a residual activity (GCK (human); compound 0.1 µM) of 108%, a residual activity (GCK (human); compound 1.0 µM) of 97% and a residual activity (GCK (human); compound 10.0 µM) of 85%. For the same molecule, the residual activity (BRSK1 (human); compound 0.1 µM) was 115%, the residual activity (BRSK1 (human); compound 1.0 µM) was 112% and the residual activity (BRSK1 (human); compound 10.0 µM) was 87%. The residual activity (EPHB1 (human); compound 0.1 µM) was 96%, the residual activity (EPHB1 (human); compound 1.0 µM) was 109% and the residual activity (EPHB1 (human); compound 10.0 µM) was 100%. The residual activity (YES1 (human); compound 0.1 µM) was 102%, the residual activity (YES1 (human); compound 1.0 µM) was 99% and the residual activity (YES1 (human); compound 10.0 µM) was 68%. It also gave a residual activity (MAPK8 (human); compound 0.1 µM) of 100%, a residual activity (MAPK8 (human); compound 1.0 µM) of 100% and a residual activity (MAPK8 (human); compound 10.0 µM) of 87%. The residual activity (MAPK9 (human); compound 0.1 µM) was 83%, the residual activity (MAPK9 (human); compound 1.0 µM) was 94% and the residual activity (MAPK9 (human); compound 10.0 µM) was 97%. The residual activity (SYK (human); compound 0.1 µM) was 116%, the residual activity (SYK (human); compound 1.0 µM) was 100% and the residual activity (SYK (human); compound 10.0 µM) was 96%. The residual activity (DYRK3 (human); compound 0.1 µM) was 98%, the residual activity (DYRK3 (human); compound 1.0 µM) was 89% and the residual activity (DYRK3 (human); compound 10.0 µM) was 81%. The residual activity (BTK (human); compound 0.1 µM) was 87%, the residual activity (BTK (human); compound 1.0 µM) was 96% and the residual activity (BTK (human); compound 10.0 µM) was 99%. The residual activity (TAOK1 (human); compound 0.1 µM) was 104%, the residual activity (TAOK1 (human); compound 1.0 µM) was 90% and the residual activity (TAOK1 (human); compound 10.0 µM) was 85%. It also gave a residual activity (MAP3K5 (human); compound 0.1 µM) of 97%, a residual activity (MAP3K5 (human); compound 1.0 µM) of 87% and a residual activity (MAP3K5 (human); compound 10.0 µM) of 90%. The residual activity (PIM1 (human); compound 0.1 µM) was 102%, the residual activity (PIM1 (human); compound 1.0 µM) was 93% and the residual activity (PIM1 (human); compound 10.0 µM) was 68%. It also gave a residual activity (EPHA2 (human); compound 0.1 µM) of 86%, a residual activity (EPHA2 (human); compound 1.0 µM) of 95% and a residual activity (EPHA2 (human); compound 10.0 µM) of 87%. The residual activity (HIPK1 (human); compound 0.1 µM) was 91%, the residual activity (HIPK1 (human); compound 1.0 µM) was 85% and the residual activity (HIPK1 (human); compound 10.0 µM) was 97%. For the same molecule, the residual activity (PRKCA (human); compound 0.1 µM) was 97%, the residual activity (PRKCA (human); compound 1.0 µM) was 94% and the residual activity (PRKCA (human); compound 10.0 µM) was 98%. The residual activity ([1]; compound 0.1 µM) was 84%, the residual activity ([1]; compound 1.0 µM) was 84% and the residual activity ([1]; compound 10.0 µM) was 84%. The residual activity (EPHB4 (human); compound 0.1 µM) was 101%, the residual activity (EPHB4 (human); compound 1.0 µM) was 105% and the residual activity (EPHB4 (human); compound 10.0 µM) was 86%. For the same molecule, the residual activity (MAP3K1 (human); compound 0.1 µM) was 114%, the residual activity (MAP3K1 (human); compound 1.0 µM) was 101% and the residual activity (MAP3K1 (human); compound 10.0 µM) was 83%. For the same molecule, the residual activity ([2]; compound 0.1 µM) was 103%, the residual activity ([2]; compound 1.0 µM) was 96% and the residual activity ([2]; compound 10.0 µM) was 75%. It also gave a residual activity (MARK3 (human); compound 0.1 µM) of 85%, a residual activity (MARK3 (human); compound 1.0 µM) of 99% and a residual activity (MARK3 (human); compound 10.0 µM) of 91%. The residual activity (MAP2K1 (human); compound 0.1 µM) was 83%, the residual activity (MAP2K1 (human); compound 1.0 µM) was 72% and the residual activity (MAP2K1 (human); compound 10.0 µM) was 90%. The residual activity (MAPKAPK5 (human); compound 0.1 µM) was 81%, the residual activity (MAPKAPK5 (human); compound 10.0 µM) was 102% and the residual activity (JAK2 JH1 JH2 (human); compound 1.0 µM) was 84%. The residual activity (JAK2 JH1 JH2 (human); compound 10.0 µM) was 94%, the residual activity (HIPK2 (human); compound 0.1 µM) was 102% and the residual activity (HIPK2 (human); compound 1.0 µM) was 97%. For the same molecule, the residual activity (HIPK2 (human); compound 10.0 µM) was 80%, the residual activity (FLT1 (human); compound 0.1 µM) was 88% and the residual activity (FLT1 (human); compound 1.0 µM) was 81%. The residual activity (FLT1 (human); compound 10.0 µM) was 53%, the residual activity (TBK1 (human); compound 0.1 µM) was 88% and the residual activity (TBK1 (human); compound 1.0 µM) was 102%. The residual activity (TBK1 (human); compound 10.0 µM) was 89%, the residual activity (STK3 (human); compound 0.1 µM) was 79% and the residual activity (STK3 (human); compound 1.0 µM) was 97%. For the same molecule, the residual activity (STK3 (human); compound 10.0 µM) was 94%, the residual activity (CaMK1 (human); compound 0.1 µM) was 108% and the residual activity (CaMK1 (human); compound 1.0 µM) was 87%. For the same molecule, the residual activity (CaMK1 (human); compound 10.0 µM) was 35%, the residual activity (INSR (human); compound 1.0 µM) was 79% and the residual activity (INSR (human); compound 10.0 µM) was 83%. The residual activity (MAPK11 (human); compound 0.1 µM) was 99%, the residual activity (MAPK11 (human); compound 1.0 µM) was 77% and the residual activity (MAPK11 (human); compound 10.0 µM) was 76%. The residual activity (MAPK10 (human); compound 0.1 µM) was 93%, the residual activity (MAPK10 (human); compound 1.0 µM) was 91% and the residual activity (MAPK10 (human); compound 10.0 µM) was 84%. The residual activity (DYRK2 (human); compound 0.1 µM) was 96%, the residual activity (DYRK2 (human); compound 1.0 µM) was 96% and the residual activity (DYRK2 (human); compound 10.0 µM) was 87%. For the same molecule, the residual activity (AURKA (human); compound 0.1 µM) was 114%, the residual activity (AURKA (human); compound 1.0 µM) was 89% and the residual activity (AURKA (human); compound 10.0 µM) was 93%. For the same molecule, the residual activity (EPHB2 (human); compound 0.1 µM) was 107%, the residual activity (EPHB2 (human); compound 1.0 µM) was 93% and the residual activity (EPHB2 (human); compound 10.0 µM) was 74%. For the same molecule, the residual activity (BRSK2 (human); compound 0.1 µM) was 102%, the residual activity (BRSK2 (human); compound 1.0 µM) was 88% and the residual activity (BRSK2 (human); compound 10.0 µM) was 94%. For the same molecule, the residual activity (MAP3K11 (human); compound 0.1 µM) was 103%, the residual activity (MAP3K11 (human); compound 1.0 µM) was 97% and the residual activity (MAP3K11 (human); compound 10.0 µM) was 81%.
